According to patent US20250129027A1 (APOGEE PHARMACEUTICALS, INC., priority 2023, published 2025):

How the values were obtained:
human recombinant FAAH = human recombinant FAAH (Homo sapiens (Human), UniProt O00519); test: In vitro inhibition of FAAH activity (fluorescent inhibitor screening kit, AMC arachidonoyl amide); assay type: biochemical; details: human recombinant FAAH; read-out: Inhibition on FAAH activity (IC50)
Method in brief: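 Fluorogenic kit assay: AMC arachidonoyl amide is cleaved by human recombinant FAAH, read at 340-360/450-465 nm. Percent inhibition versus non-treated control; IC50 values derived from multiple compound concentrations where tested.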

human recombinant MAGL = human recombinant MAGL (Homo sapiens (Human), UniProt Q99685); test: In vitro inhibition of MAGL activity (inhibitor screening kit, 4-nitrophenylacetate); assay type: biochemical; details: human recombinant MAGL
Method in brief: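 Colorimetric kit assay: recombinant human MAGL hydrolyses 4-nitrophenylacetate to 4-nitrophenol, read by absorbance at 405-412 nm. Inhibition given as percentage of signal in treated versus untreated MAGL control.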

Chain of human recombinant MAGL (Q99685 whole entry): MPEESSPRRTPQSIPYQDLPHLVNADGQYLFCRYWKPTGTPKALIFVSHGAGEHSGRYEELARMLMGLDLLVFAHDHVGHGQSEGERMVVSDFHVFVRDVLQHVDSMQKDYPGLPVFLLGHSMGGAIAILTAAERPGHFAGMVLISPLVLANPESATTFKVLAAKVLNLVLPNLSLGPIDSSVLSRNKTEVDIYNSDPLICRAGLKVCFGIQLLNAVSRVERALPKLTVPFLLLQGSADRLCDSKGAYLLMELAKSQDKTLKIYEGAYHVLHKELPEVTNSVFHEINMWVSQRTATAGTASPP
Chain of human recombinant FAAH (O00519 whole entry): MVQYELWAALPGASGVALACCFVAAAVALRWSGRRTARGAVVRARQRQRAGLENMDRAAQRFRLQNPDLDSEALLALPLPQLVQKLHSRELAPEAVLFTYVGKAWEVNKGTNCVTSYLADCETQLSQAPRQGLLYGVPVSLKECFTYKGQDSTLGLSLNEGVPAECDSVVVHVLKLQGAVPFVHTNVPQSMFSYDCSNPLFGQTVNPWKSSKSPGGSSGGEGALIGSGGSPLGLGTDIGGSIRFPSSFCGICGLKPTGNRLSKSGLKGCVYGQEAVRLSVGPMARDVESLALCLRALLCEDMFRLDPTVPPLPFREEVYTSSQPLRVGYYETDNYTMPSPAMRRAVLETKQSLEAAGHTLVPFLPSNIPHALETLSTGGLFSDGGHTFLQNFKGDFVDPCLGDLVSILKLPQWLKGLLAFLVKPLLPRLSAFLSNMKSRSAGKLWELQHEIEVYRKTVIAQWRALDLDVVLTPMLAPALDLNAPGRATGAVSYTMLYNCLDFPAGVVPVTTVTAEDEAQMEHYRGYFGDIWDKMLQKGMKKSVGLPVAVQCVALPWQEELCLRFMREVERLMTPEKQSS

Compound | IC50 (human recombinant FAAH) | IC50 (human recombinant MAGL)
CC1CCC(NC(=O)Oc2ccc(O)c(-c3cncc(-c4nnco4)c3)c2)CC1 (stereo not shown) [Example 159] | 10 to 100 nM | > 10000 nM
CCCCCCCCNC(=O)Oc1cc(O)cc(-c2cncc(-c3nnco3)c2)c1 [Example 160, 3-(5-(1,3,4-oxadiazol-2-yl)pyridin-3-yl)-5-hydroxyphenyl octylcarbamate] | 1 to 10 nM | 1000 to 10000 nM
O=C(NCC1CCCCC1)Oc1cc(O)cc(-c2cncc(-c3nnco3)c2)c1 [Example 161, 3-(5-(1,3,4-oxadiazol-2-yl)pyridin-3-yl)-5-hydroxyphenyl (cyclohexylmethyl)carbamate] | 10 to 100 nM | 10000 to 50000 nM
O=C(NCc1ccccc1)Oc1cc(O)cc(-c2cncc(-c3nnco3)c2)c1 [Example 162, 3-(5-(1,3,4-oxadiazol-2-yl)pyridin-3-yl)-5-hydroxyphenyl benzylcarbamate] | ~100 nM | > 10000 nM
O=C(NC1CCCC1)Oc1cc(O)cc(-c2cncc(-c3nnco3)c2)c1 [Example 163, 3-(5-(1,3,4-oxadiazol-2-yl)pyridin-3-yl)-5-hydroxyphenyl cyclopentylcarbamate] | 10 to 100 nM | > 50000 nM
O=C(NC1CCCCC1)Oc1cc(O)cc(-c2cncc(-c3nnco3)c2)c1 [Example 164, 3-(5-(1,3,4-oxadiazol-2-yl)pyridin-3-yl)-5-hydroxyphenyl cyclohexylcarbamate] | 10 to 100 nM | > 50000 nM
COc1ccc(OC(=O)NCC2CCCCC2)cc1-c1cncc(-c2nnco2)c1 [Example 168, 3-(5-(1,3,4-oxadiazol-2-yl)pyridin-3-yl)-4-methoxyphenyl (cyclohexylmethyl)carbamate] | 100 to 1000 nM | > 10000 nM
COc1ccc(OC(=O)NC2CCCC2)cc1-c1cncc(-c2nnco2)c1 [Example 169, 3-(5-(1,3,4-oxadiazol-2-yl)pyridin-3-yl)-4-methoxyphenyl cyclopentylcarbamate] | 10 to 100 nM | > 10000 nM
COc1ccc(OC(=O)NC2CCCCC2)cc1-c1cncc(-c2nnco2)c1 [Example 170, 3-(5-(1,3,4-oxadiazol-2-yl)pyridin-3-yl)-4-methoxyphenyl cyclohexylcarbamate] | 100 to 1000 nM | ~10000 nM
COc1ccc(OC(=O)NC2CCC(C)CC2)cc1-c1cncc(-c2nnco2)c1 (stereo not shown) [Example 171, 3-(5-(1,3,4-oxadiazol-2-yl)pyridin-3-yl)-4-methoxyphenyl (4-methylcyclohexyl)carbamate] | 100 to 1000 nM | > 10000 nM
CCCCCCCCNC(=O)Oc1cc(OC)cc(-c2cncc(-c3nnco3)c2)c1 [Example 174, 3-(5-(1,3,4-oxadiazol-2-yl)pyridin-3-yl)-5-methoxyphenyl octylcarbamate] | 1 to 10 nM | ~10000 nM
COc1cc(OC(=O)NCC2CCCCC2)cc(-c2cncc(-c3nnco3)c2)c1 [Example 175, 3-(5-(1,3,4-oxadiazol-2-yl)pyridin-3-yl)-5-methoxyphenyl (cyclohexylmethyl)carbamate] | ~100 nM | > 10000 nM
COc1cc(OC(=O)NCc2ccccc2)cc(-c2cncc(-c3nnco3)c2)c1 [Example 176, 3-(5-(1,3,4-oxadiazol-2-yl)pyridin-3-yl)-5-methoxyphenyl benzylcarbamate] | > 1000 nM | > 10000 nM
COc1cc(OC(=O)NC2CCCC2)cc(-c2cncc(-c3nnco3)c2)c1 [Example 177, 3-(5-(1,3,4-oxadiazol-2-yl)pyridin-3-yl)-5-methoxyphenyl cyclopentylcarbamate] | 100 to 1000 nM | > 10000 nM
COc1cc(OC(=O)NC2CCCCC2)cc(-c2cncc(-c3nnco3)c2)c1 [Example 178, 3-(5-(1,3,4-oxadiazol-2-yl)pyridin-3-yl)-5-methoxyphenyl cyclohexylcarbamate] | ~100 nM | > 10000 nM
CCCCCCCCNC(=O)Oc1ccc(N(C)C)c(-c2cncc(-c3nnco3)c2)c1 [Example 180, 3-(5-(1,3,4-oxadiazol-2-yl)pyridin-3-yl)-4-(dimethylamino)phenyl octylcarbamate] | 10 to 100 nM | > 10000 nM
CN(C)c1ccc(OC(=O)NCC2CCCCC2)cc1-c1cncc(-c2nnco2)c1 [Example 181, 3-(5-(1,3,4-oxadiazol-2-yl)pyridin-3-yl)-4-(dimethylamino)phenyl (cyclohexylmethyl)carbamate] | ~1000 nM | > 10000 nM
CN(C)c1ccc(OC(=O)NCc2ccccc2)cc1-c1cncc(-c2nnco2)c1 [Example 182, 3-(5-(1,3,4-oxadiazol-2-yl)pyridin-3-yl)-4-(dimethylamino)phenyl benzylcarbamate] | > 1000 nM | > 10000 nM
CN(C)c1ccc(OC(=O)NC2CCCCC2)cc1-c1cncc(-c2nnco2)c1 [Example 184, 3-(5-(1,3,4-oxadiazol-2-yl)pyridin-3-yl)-4-(dimethylamino)phenyl cyclohexylcarbamate] | > 1000 nM | > 10000 nM

Compound | IC50 (human recombinant FAAH) | IC50 (human recombinant MAGL)
CN(C)c1ccc(OC(=O)NC2CCCCCC2)cc1-c1cncc(-c2nnco2)c1 [Example 185, 3-(5-(1,3,4-oxadiazol-2-yl)pyridin-3-yl)-4-(dimethylamino)phenyl cycloheptylcarbamate] | 100 to 1000 nM | > 10000 nM
CSc1ccc(OC(=O)NCC2CCCCC2)cc1-c1cncc(-c2nnco2)c1 [Example 187, 3-(5-(1,3,4-oxadiazol-2-yl)pyridin-3-yl)-4-(methylthio)phenyl (cyclohexylmethyl) carbamate] | 100 to 1000 nM | > 10000 nM
CSc1ccc(OC(=O)NCc2ccccc2)cc1-c1cncc(-c2nnco2)c1 [Example 188, 3-(5-(1,3,4-oxadiazol-2-yl)pyridin-3-yl)-4-(methylthio)phenyl benzylcarbamate] | > 1000 nM | > 10000 nM
CSc1ccc(OC(=O)NC2CCCC2)cc1-c1cncc(-c2nnco2)c1 [Example 189, 3-(5-(1,3,4-oxadiazol-2-yl)pyridin-3-yl)-4-(methylthio)phenyl cyclopentylcarbamate] | 100 to 1000 nM | > 10000 nM
CSc1ccc(OC(=O)NC2CCCCC2)cc1-c1cncc(-c2nnco2)c1 [Example 190, 3-(5-(1,3,4-oxadiazol-2-yl)pyridin-3-yl)-4-(methylthio)phenyl cyclohexylcarbamate] | 100 to 1000 nM | > 10000 nM
O=C(NC1CCCCC1)Oc1ccc(F)c(-c2cncc(-c3nnco3)c2)c1 [Example 192, 3-(5-(1,3,4-oxadiazol-2-yl)pyridin-3-yl)-4-fluorophenyl cyclohexylcarbamate] | 10 to 100 nM | > 10000 nM
CC1CCC(NC(=O)Oc2ccc(F)c(-c3cncc(-c4nnco4)c3)c2)CC1 (stereo not shown) [Example 193, 3-(5-(1,3,4-oxadiazol-2-yl)pyridin-3-yl)-4-fluorophenyl (4-methylcyclohexyl)carbamate] | 10 to 100 nM | > 10000 nM
CCCCCCCCNC(=O)Oc1cc(F)cc(-c2cncc(-c3nnco3)c2)c1 [Example 195, 3-(5-(1,3,4-oxadiazol-2-yl)pyridin-3-yl)-5-fluorophenyl octylcarbamate] | 1 to 10 nM | ~1000 nM
O=C(NCc1ccccc1)Oc1cc(F)cc(-c2cncc(-c3nnco3)c2)c1 [Example 196, 3-(5-(1,3,4-oxadiazol-2-yl)pyridin-3-yl)-5-fluorophenyl benzylcarbamate] | > 1000 nM | ~10000 nM
O=C(NC1CCCCC1)Oc1cc(F)cc(-c2cncc(-c3nnco3)c2)c1 [Example 197, 3-(5-(1,3,4-oxadiazol-2-yl)pyridin-3-yl)-5-fluorophenyl cyclohexylcarbamate] | 100 to 1000 nM | > 10000 nM
CCCCCCCCNC(=O)Oc1ccc(OC(F)(F)F)c(-c2cncc(-c3nnco3)c2)c1 [Example 199, 3-(5-(1,3,4-oxadiazol-2-yl)pyridin-3-yl)-4-(trifluoromethoxy)phenyl octylcarbamate] | 10 to 100 nM | 1000 to 10000 nM
O=C(NC1CCCCC1)Oc1ccc(OC(F)(F)F)c(-c2cncc(-c3nnco3)c2)c1 [Example 200, 3-(5-(1,3,4-oxadiazol-2-yl)pyridin-3-yl)-4-(trifluoromethoxy)phenyl cyclohexylcarbamate] | 100 to 1000 nM | > 10000 nM
CC1CCC(NC(=O)Oc2ccc(OC(F)(F)F)c(-c3cncc(-c4nnco4)c3)c2)CC1 (stereo not shown) [Example 201] | 100 to 1000 nM | > 1000 nM
O=C(NC1CCCCCC1)Oc1ccc(OC(F)(F)F)c(-c2cncc(-c3nnco3)c2)c1 [Example 202, 3-(5-(1,3,4-oxadiazol-2-yl)pyridin-3-yl)-4-(trifluoromethoxy)phenyl cycloheptylcarbamate] | 100 to 1000 nM | > 10000 nM
O=C(Nc1ccccc1)Oc1ccc(OC(F)(F)F)c(-c2cncc(-c3nnco3)c2)c1 [Example 203, 3-(5-(1,3,4-oxadiazol-2-yl)pyridin-3-yl)-4-(trifluoromethoxy)phenyl phenylcarbamate] | > 1000 nM | > 10000 nM
O=C(NCC1CCCCC1)Oc1cccc(-c2cncc(-c3ncno3)c2)c1 [Example 204, 3-(5-(1,2,4-oxadiazol-5-yl)pyridin-3-yl)phenyl (cyclohexylmethyl)carbamate] | 10 to 100 nM | > 10000 nM
O=C(NC1CCCCC1)Oc1cccc(-c2cncc(-c3ncno3)c2)c1 [Example 205, 3-(5-(1,2,4-oxadiazol-5-yl)pyridin-3-yl)phenyl cyclohexylcarbamate] | 10 to 100 nM | > 10000 nM
O=C(NC1CCCCCC1)Oc1cccc(-c2cncc(-c3ncno3)c2)c1 [Example 206, 3-(5-(1,2,4-oxadiazol-5-yl)pyridin-3-yl)phenyl cycloheptylcarbamate] | 10 to 100 nM | > 10000 nM
CCCCCCCCNC(=O)Oc1cccc(-c2cncc(-c3nncs3)c2)c1 [Example 207, 3-(5-(1,3,4-thiadiazol-2-yl)pyridin-3-yl)phenyl octylcarbamate] | 1 to 10 nM | ~10000 nM
